The test system of one series is coccid insects. The series is described as follows: two-stage ozone then carbon dioxide fumigation, text statements on the insects/pests. Format: in vivo. The source says:
(§1) Step 1: Placing the pest control object into a sample bottle, which contains coccid insects, and sealing the sample bottle with a pore size of 10 um filter membrane. This configuration simulates the environment of insects or other creatures hiding deep inside fruits, within stems, or shielded by stacked fruit packages (this test was also validated using stacked sugar apples and wax apples, yielding similar results). The sample is then placed in a fumigation chamber.
(§2) Step 2: After closing the fumigation chamber, vacuuming the chamber to 0.2 bar-0.9 bar, then maintaining this lower pressure for about 2 minutes to confirm that the fumigation chamber is well sealed.
(§3) Step 3: Introducing ozone at a concentration ranging from 40 ppm to 160 ppm into the fumigation chamber until 1.0-1.7 bar, and fumigating for 3-20 minutes.
(§4) Step 4: Exhausting the gas from the fumigation chamber, then vacuuming it to 0.2-0.9 bar, and maintaining this low pressure for about 2 minutes.
(§5) Step 5: Introducing high-concentration carbon dioxide into the fumigation chamber until 1.0-1.7 bar, fumigating for 10-30 minutes.
(§6) Step 6: After the above pest control steps, exhausting the gases from the fumigation chamber and restoring the chamber to atmospheric pressure, then removing the tested objects.
(§7) Step 7: Spraying 0.5 wt % methylene blue aqueous solution (light blue) or 0.05 wt % neutral red staining solution (light red) onto the insects and waiting for 60 minutes. Well-stained insects indicate death. All values are expressed as mean±SD. ANOVA or other appropriate statistical analysis methods were used, with P<0.05 indicating a significant difference.

For the next series, the system named is silkworm eggs. The series is described as follows: ozone then carbon dioxide fumigation of silkworm eggs, hatching. Format: in vivo. The settings on record: ozone pressure 1.4 bar; carbon dioxide introduced for 20 minutes. The procedure: (§8) Using the same method as Embodiment 1, except that the treatment period of carbon dioxide is adjusted to 10-50 minutes. The evacuation pressure in the fumigation chamber in Step 2 is 0.3 bar. In Step 3, the pressure after the ozone input is controlled within 1.0-1.4 bar, and the pest-control treatment is conducted for 5 minutes. In Step 4, the fumigation chamber is evacuated to 0.3 bar. In Step 5, the pressure after the input of carbon dioxide (99.5% concentration) is controlled at 1.4 bar, and the pest-control treatment is conducted for 10-50 minutes.
Using the same experimental conditions as Embodiment 5, when the ozone pressure is 1.4 bar, silkworm eggs were used for testing.

The test system of the next series is Icerya purchasi. The series is described as follows: two-stage ozone then carbon dioxide fumigation, lethal rate by staining. Format: in vivo.
Source text: as §1, §2, §3, §4, §5, §6, §7
(§9) Using the same method as Embodiment 1, except that the concentration of the introduced ozone is adjusted (ranging from 40 ppm to 160 ppm). The pressure of the fumigation chamber in Step 2 is about 0.3 bar; in Step 3, it is about 1.3 bar, with the process lasting 5 minutes; in Step 4, it is about 0.3 bar; and in Step 5, the pressure is 1.3 bar, with the process lasting 15 minutes.
(§10) Using the same method as Embodiment 2, except that the evacuation pressure in Step 2 is adjusted (ranging from 0.2 bar to 0.9 bar); the concentration of the introduced ozone is approximately 70 ppm, and other parameters remain the same as those in Embodiment 2.
(§11) Using the same method as Embodiment 2, except that the ozone treatment duration in […] is adjusted (ranging from 3 to 30 minutes); the concentration of the introduced ozone is 70 ppm, and ozone is introduced until the pressure reaches 1.0 bar. Other parameters remain the same as those in Embodiment 2.
as §8

For another series, the system named is Pseudococcidae. The series is described as above. It is filed as in vivo.
Source text: as §1, §2, §3, §4, §5, §6, §7, §9, §10, §11, §8

The next series concerns aphids. The note with it: 10% CO2 in greenhouses; cited from earlier work.
In series [1] the test system is pests. The note with it: 60% CO2, asparagus; cited from earlier work.
The subject of another series is mite eggs. The settings on record: vacuum pumping then 60% CO2, normal temperature and normal pressure, at least 16 hours; cited from earlier work.
The next series deals with dried apricot pests. The settings on record: CO2 under 0.5 times atmospheric pressure; cited from earlier work.
Another series relates to red flour beetle. The note with it: pressurized CO2, 5 times to 15 times of the standard atmospheric pressure; cited from earlier work.
Series [2] deals with pests. The settings on record: CO2 with 1.8 times of the standard atmospheric pressure; cited from earlier work.
Setting [3] is: ozone at 1.0 bar 5 min, evacuation 0.3 bar, CO2 99.5% at 1.4 bar for 10 min.
Setting [4] is: ozone at 1.0 bar 5 min, evacuation 0.3 bar, CO2 99.5% at 1.4 bar for 15 min.
Setting [5] is: ozone at 1.0 bar 5 min, evacuation 0.3 bar, CO2 99.5% at 1.4 bar for 20 min.
The mark [6] stands for this setting: ozone at 1.0 bar 5 min, evacuation 0.3 bar, CO2 99.5% at 1.4 bar for 30 min.
Where [7] appears, read: ozone at 1.0 bar 5 min, evacuation 0.3 bar, CO2 99.5% at 1.4 bar for 40 min.
Where [8] appears, read: ozone at 1.4 bar 5 min, evacuation 0.3 bar, CO2 99.5% at 1.4 bar for 10 min.
The mark [9] stands for this setting: ozone at 1.4 bar 5 min, evacuation 0.3 bar, CO2 99.5% at 1.4 bar for 15 min.
Setting [10] is: ozone at 1.4 bar 5 min, evacuation 0.3 bar, CO2 99.5% at 1.4 bar for 20 min.
Setting [11] is: ozone at 1.4 bar 5 min, evacuation 0.3 bar, CO2 99.5% at 1.4 bar for 30 min.
Where [12] appears, read: ozone at 1.4 bar 5 min, evacuation 0.3 bar, CO2 99.5% at 1.4 bar for 40 min.
[13] abbreviates: Step 2 vacuumed pressure 0.2 bar, ozone 70 ppm to 1.3 bar 5 min, then CO2 1.3 bar 15 min.
Setting [14] is: Step 2 vacuumed pressure 0.3 bar, ozone 70 ppm to 1.3 bar 5 min, then CO2 1.3 bar 15 min.
[15] abbreviates: Step 2 vacuumed pressure 0.4 bar, ozone 70 ppm to 1.3 bar 5 min, then CO2 1.3 bar 15 min.
Setting [16] is: Step 2 vacuumed pressure 0.5 bar, ozone 70 ppm to 1.3 bar 5 min, then CO2 1.3 bar 15 min.
The mark [17] stands for this setting: Step 2 vacuumed pressure 0.6 bar, ozone 70 ppm to 1.3 bar 5 min, then CO2 1.3 bar 15 min.
[18] abbreviates: Step 2 vacuumed pressure 0.9 bar, ozone 70 ppm to 1.3 bar 5 min, then CO2 1.3 bar 15 min.
The mark [19] stands for this setting: ozone 40 ppm to 1.3 bar 5 min, evacuation 0.3 bar, then CO2 1.3 bar 15 min.
The mark [20] stands for this setting: ozone 70 ppm to 1.0 bar for 3 min, evacuation 0.3 bar, then CO2 1.3 bar 15 min.
Setting [21] is: ozone 70 ppm to 1.0 bar for 5 min, evacuation 0.3 bar, then CO2 1.3 bar 15 min.
Setting [22] is: ozone 70 ppm to 1.0 bar for 10 min, evacuation 0.3 bar, then CO2 1.3 bar 15 min.
The mark [23] stands for this setting: ozone 70 ppm to 1.0 bar for 15 min, evacuation 0.3 bar, then CO2 1.3 bar 15 min.
Where [24] appears, read: ozone 70 ppm to 1.0 bar for 20 min, evacuation 0.3 bar, then CO2 1.3 bar 15 min.
[25] abbreviates: ozone 70 ppm to 1.0 bar for 30 min, evacuation 0.3 bar, then CO2 1.3 bar 15 min.
[26] abbreviates: ozone 70 ppm to 1.3 bar 5 min, evacuation 0.3 bar, then CO2 1.3 bar 15 min.
Where [27] appears, read: ozone 100 ppm to 1.3 bar 5 min, evacuation 0.3 bar, then CO2 1.3 bar 15 min.
The mark [28] stands for this setting: ozone 130 ppm to 1.3 bar 5 min, evacuation 0.3 bar, then CO2 1.3 bar 15 min.
The mark [29] stands for this setting: ozone 160 ppm to 1.3 bar 5 min, evacuation 0.3 bar, then CO2 1.3 bar 15 min.

For ozone and carbon dioxide, the “time to completely kill the pests” value with coccid insects (ozone 5 minutes at 1.0 bar, in synergy with carbon dioxide) is “about 30 minutes”; in the series with coccid insects (ozone 5 minutes at 1.4 bar, then carbon dioxide), 15 min. The “pest control / pest elimination” value in the series on coccid insects (two-stage fumigation, within 20 minutes) is listed as 100%. The “hatching of silkworm eggs” value in the series with silkworm eggs is on record as “none of the silkworm eggs in the experimental group hatched”.
Regarding `O=C=O` [CO2, carbon dioxide], the Lethal rate with Icerya purchasi (setting [3]) is on record as 72 ± 11%; in the series with Icerya purchasi (setting [4]), 88 ± 11%; with Icerya purchasi (setting [5]), 97 ± 4%; with Icerya purchasi (setting [6]) it was 100 ± 0%; with Icerya purchasi (setting [7]), 100 ± 0%; in the series with Icerya purchasi (setting [8]), 92 ± 11%. The Lethal rate was determined as 100 ± 0% in the series on Icerya purchasi (setting [9]); 100 ± 0% in the series on Icerya purchasi (setting [10]); 100 ± 0% in the series on Icerya purchasi (setting [11]); 100 ± 0% with Icerya purchasi (setting [12]); 81 ± 6% in the series with Pseudococcidae (setting [3]); 91 ± 8% in the series on Pseudococcidae (setting [4]). Moreover, the Lethal rate in the series with Pseudococcidae (setting [5]) is recorded as 100 ± 1%; in the series on Pseudococcidae (setting [6]), 100 ± 0%; in the series with Pseudococcidae (setting [7]), 100 ± 0%; in the series on Pseudococcidae (setting [8]) it was 89 ± 8%; in the series with Pseudococcidae (setting [9]) it was 100 ± 1%; with Pseudococcidae (setting [10]), 100 ± 0%. For the same compound, the Lethal rate in the series with Pseudococcidae (setting [11]) and in the series with Pseudococcidae (setting [12]) was 100 ± 0% each time. The “time required to achieve minimal pest control effects” value in the series on aphids is given as “one week”. Moreover, the “time required to achieve minimal pest control” value with pests [1] is reported as “more than 48 hours”. The “mortality of mite eggs” value with mite eggs was 89%. For the same compound, the “time required to kill 90% of pests” value with dried apricot pests is given as “over 24 hours”. Further, the “time required to kill most of the pests” value in the series on red flour beetle is “at least 1.8 days”. The “time required to achieve the minimal pest control” value in the series on pests [2] is on record as “at least 120 minutes”.
For `O=[O+][O-]` [ozone], the Lethal rate in the series with Icerya purchasi (setting [13]) is 100 ± 0%; in the series on Icerya purchasi (setting [14]), 96 ± 3%; with Icerya purchasi (setting [15]), 85 ± 12%; in the series on Icerya purchasi (setting [16]), 68 ± 17%; with Icerya purchasi (setting [17]), 48 ± 16%; in the series with Icerya purchasi (setting [18]), 37 ± 18%. Moreover, the Lethal rate came to 76 ± 10% in the series with Icerya purchasi (setting [19]); 64 ± 14% in the series on Icerya purchasi (setting [20]); 68 ± 9% with Icerya purchasi (setting [21]); 87 ± 9% in the series on Icerya purchasi (setting [22]); 100 ± 1% in the series with Icerya purchasi (setting [23]); 100 ± 0% in the series with Icerya purchasi (setting [24]). In addition, the Lethal rate with Icerya purchasi (setting [25]) was 100 ± 0%; in the series on Icerya purchasi (setting [26]), 98 ± 3%; in the series on Icerya purchasi (setting [27]), 100 ± 0%; with Icerya purchasi (setting [28]) it was 100 ± 0%; with Icerya purchasi (setting [29]), 100 ± 0%; in the series on Pseudococcidae (setting [13]), 100 ± 0%. Besides, the Lethal rate amounted to 91 ± 5% in the series on Pseudococcidae (setting [14]); 82 ± 10% with Pseudococcidae (setting [15]); 71 ± 13% in the series on Pseudococcidae (setting [16]); 52 ± 14% in the series on Pseudococcidae (setting [17]); 30 ± 17% in the series with Pseudococcidae (setting [18]); 81 ± 11% in the series with Pseudococcidae (setting [19]). For the same compound, the Lethal rate was 61 ± 16% in the series with Pseudococcidae (setting [20]); 71 ± 10% in the series with Pseudococcidae (setting [21]); 91 ± 7% in the series with Pseudococcidae (setting [22]); 100 ± 0% with Pseudococcidae (setting [23]); 100 ± 0% in the series on Pseudococcidae (setting [24]); 100 ± 0% in the series on Pseudococcidae (setting [25]). The Lethal rate in the series on Pseudococcidae (setting [26]) is on record as 93 ± 7%; with Pseudococcidae (setting [27]), 100 ± 0%; in the series on Pseudococcidae (setting [28]), 100 ± 0%; with Pseudococcidae (setting [29]), 100 ± 0%; in the series with coccid insects (ozone 70 ppm, 90 minutes after the treatment in Step 3), 100%. Further, the final lethal rate in the series on coccid insects (vacuum pressure 0.4 or 0.5 bar, ozone 70 ppm, after 90 minutes of ozone treatment) worked out at 100%.

The values above are taken from patent US20250176554A1, “NON-TOXIC […] IN WHICH OZONE SYNERGIZE WITH CARBON DIOXIDE” (priority 2022, published 2025).
